Results published in patent publication US20030021772A1 (priority 2001, published 2003).

Assays:
[1] = tested on: effects of jet lag and sleep deprivation on human beings; assay: CogScreen Visual Sequence Comparison Test (visual perceptual speed and accuracy); type: in vivo; settings: sublingual NADH 20 mg; PM test vs baseline; placebo 1.4; P=0.026
Procedure: (§1) The efficacy of a stabilized, sublingual form of reduced nicotinamide adenine dinucleotide (NADH, available commercially under the name ENADA® from Menuco Corp.) as a treatment for the effects of jet lag and sleep deprivation on human beings was examined. Healthy individuals were treated with NADH on the day following an overnight flight across North America, and the effects of NADH on their cognitive functioning were monitored. Although the sublingual form of NADH was used in these examples, any of the aforementioned forms of NADH could have been employed.
(§2) The subjects in these examples were volunteers between 35 and 55 years of age, and were in good general physical health. […] In addition, subjects were required to have a normal day/night sleep schedule in their home time zone, and to have an Epworth Sleepiness Scale rating >8 at baseline (“baseline” being the testing in San Diego on the day of the flight) (see E. Hoddes et al., Quantification of Sleepiness: A New Approach, Psychophysiology (1973), 10(4):431-6). […]
(§3) Subjects arrived at the San Diego, Calif. test site at 1200 hours on the day of the flight. […] Subjects were transported to the San Diego Airport and flown to Phoenix, Ariz. where they were shuttled to a conference room at a nearby hotel, provided dinner, and readministered the battery of tests at approximately 2030 hours. […]

[2] = tested on: effects of jet lag and sleep deprivation on human beings; assay: Kay Continuous Performance Test (KCPT), sustained attention and vigilance; type: in vivo; settings: sublingual NADH 20 mg
Procedure: as §1
The subjects in these examples were volunteers between 35 and 55 years of age, and were in good general physical health. At a screening visit, subjects were urine tested to screen for the use of illicit drugs and pregnancy. […] In addition, subjects were required to have a normal day/night sleep schedule in their home time zone, and to have an Epworth Sleepiness Scale rating >8 at baseline (“baseline” being the testing in San Diego on the day of the flight) (see E. Hoddes et al., Quantification of Sleepiness: A New Approach, Psychophysiology (1973), 10(4):431-6). […]
as §3
(§4) Sublingual NADH 20 mg (4 tablets of sublingual ENADAlert™ 5 mg) or an equal number of identical placebo tablets were administered by study site personnel to the subjects upon their arrival at the Washington test site. At the test site, subjects' activities were carefully monitored to avoid dehydration, exposure to daylight (subjects were kept indoors) and hunger (they were provided breakfast and lunch, which all subjects ate). […]

[3] = tested on: effects of jet lag and sleep deprivation on human beings; assay: CogScreen Matching to Sample Test; type: in vivo; settings: sublingual NADH 20 mg; baseline to PM; placebo 1.0; P=0.078
Procedure: as §1, §2, §3

Stability at acidic pH = type: physicochemical; settings: pHs below 7, as in the human stomach
Excerpt: Therefore, when used in oral form, these substances must be coated with an acid-stable protective film so that they can survive the stomach environment for subsequent absorption by the intestine. Suitable acid-stable coatings are known in the art and can be applied by a conventional coating process after the active ingredients are formed into a tablet or capsule. Examples of suitable coatings are: cellulose acetate phthalate; polyvinylacetate phthalate; hydroxyl-propyl-methyl cellulose phthalate; methacryllic acid copolymers; fat-wax; shellac; zein; aqua-coating; and surerelease. Another possibility for the coating is a solution of a phthalate and a lack dry substance in isopropanol. An example of a suitable lack dry substance is sold under the name […]™ by Rohm Pharma. Alternatively, a protein coating in an aqueous medium may be applied. However, a sugar-coating should not be used because it will destabilize NADH.

[4] = tested on: effects of jet lag and sleep deprivation on human beings; assay: Stanford Sleepiness Scale self-report; type: in vivo; settings: sublingual NADH 20 mg
Procedure: as §1
The subjects in these examples were volunteers between 35 and 55 years of age, and were in good general physical health. At a screening visit, subjects were urine tested to screen for the use of illicit drugs and pregnancy. Cognitive screening with the Trail Making Test and Symbol Digit Modalities Test (see M. D. Lezak, Neuropsychological Assessment, 3rd ed., Oxford University Press (1995)) was used to exclude subjects with cognitive function test scores>1 SD below the mean for their age. Subjects were required to be gainfully employed, to have completed 14 years of formal education, and to have none of the following conditions: history of substance abuse, obesity (body mass index>30 kg/m^2), air sickness, pregnancy, nicotine use (within 6-months), mental health disorder (within 1 year), or sleep disorder. In addition, subjects were required to have a normal day/night sleep schedule in their home time zone, and to have an Epworth Sleepiness Scale rating >8 at baseline (“baseline” being the testing in San Diego on the day of the flight) (see E. Hoddes et al., Quantification of Sleepiness: A New Approach, Psychophysiology (1973), 10(4):431-6). Subjects were not permitted to be taking antidepressant medications, CNS stimulants, neuroleptics, Ginseng, Gingko Biloba, melatonin, phosphatylcholine, -acetyl carnatene, or other medications/nutritional supplements reported to enhance cognitive functioning within 90 days of the study. During the study, subjects were not permitted to use caffeine, alcohol or to take any prescription or over-the-counter medications known to enhance or depress CNS functioning.
Subjects arrived at the San Diego, Calif. test site at 1200 hours on the day of the flight. The study protocol was reviewed with the subjects and they were then each issued a laptop computer (IBM Thinkpad Model 760) and familiarized with the tests and measures to be used in the study. At approximately 1500 hours subjects were administered the entire battery of tests to establish their baseline performance (“baseline”). Subjects also received training in the method for taking the sublingual tablets. Subjects were transported to the San Diego Airport and flown to Phoenix, Ariz. where they were shuttled to a conference room at a nearby hotel, provided dinner, and readministered the battery of tests at approximately 2030 hours. Subjects were shuttled back to the airport and boarded a flight to Baltimore, Md. at 2230 hours. Thirty minutes into the flight the subjects were instructed to complete a subset of the battery of tests. Subjects were permitted to sleep after completing the tests. The duration of the flight from Phoenix to Baltimore is approximately 4 hours. Furthermore, there is a 3-hour time difference between San Diego and Baltimore. The local time in Baltimore upon arrival was approximately 0600 hours. After breakfast, subjects were shuttled to the Washington, D.C. test site where they arrived at approximately 0800 hours.
as §4

[5] = tested on: effects of jet lag and sleep deprivation on human beings; assay: ANAM Math Test (working memory, math reasoning); type: in vivo; settings: sublingual NADH 20 mg
Procedure: as §1, §2, §3

[6] = tested on: effects of jet lag and sleep deprivation on human beings; assay: Walter Reed Mood Scale self-report; type: in vivo; settings: sublingual NADH 20 mg
Procedure: as §1, §2, §3

[7] = tested on: effects of jet lag and sleep deprivation on human beings; assay: CCAB Mark Numbers Test (divided attention); type: in vivo; settings: sublingual NADH 20 mg
Procedure: as §1, §2, §3

human beings = assay: Adverse effects (headaches) during the jet lag study; type: in vivo; settings: sublingual NADH 20 mg
Procedure: as §1, §2, §3

[8] = tested on: effects of jet lag and sleep deprivation on human beings; assay: ANAM Running Memory Test (vigilance, working memory) after overnight flight; type: in vivo; settings: sublingual NADH 20 mg
Procedure: as §1, §2, §3

[9] = tested on: effects of jet lag and sleep deprivation on human beings; assay: CogScreen Dual Task Test: Tracking Alone (psychomotor functioning); type: in vivo; settings: sublingual NADH 20 mg, 31% at baseline
Procedure: as §1, §2, §3

[10] = tested on: effects of jet lag and sleep deprivation on human beings; assay: CogScreen Shifting Attention Test: Instruction Condition (working memory); type: in vivo; settings: sublingual NADH 20 mg
Procedure: as §1, §2, §3

NC(=O)C1=CN([C@@H]2O[C@H](COP(=O)(O)OP(=O)(O)OC[C@H]3O[C@@H](n4cnc5c(N)ncnc54)[C@H](O)[C@@H]3O)[C@@H](O)[C@H]2O)C=CC1 [NADH, reduced nicotinamide adenine dinucleotide]
more items correctly completed per minute vs baseline (Visual Sequence Comparison throughput) [1]: 5.4 items per minute
subjects with normal baseline performance who made two or more errors on KCPT ([2]; AM test, 90 min after dosing, placebo 44%): 36%
subjects who had resumed a normal level of KCPT performance ([2]; PM test, placebo 63%, P<0.08): 86%
subjects with omission errors on the KCPT ([2]; afternoon, placebo 37%): 14%
more correct responses per minute (Matching to Sample throughput) [3]: 4.9 correct responses per minute
stability at pHs below 7 (Stability at acidic pH): very unstable
subjects reporting an increase in sleepiness compared to baseline ([4]; AM test session, placebo 62.5%): 57.1%
subjects with Stanford Sleepiness Scale rating of 1 or 2 ([4]; AM test, 82% at baseline, placebo identical): 35%
subjects with Stanford Sleepiness Scale rating of 3 or more ([4]; AM test, placebo identical): 65%
subjects no longer reporting an increase in sleepiness relative to baseline ([4]; PM test session, placebo 25%): 57.7%
number of subjects with Stanford Sleepiness Scale rating of 1 or 2 ([4]; PM test, 17 subjects, placebo four, p=0.07): eight
number of subjects with Stanford Sleepiness Scale rating of 3 or more ([4]; PM test, 17 subjects, placebo thirteen): nine
subjects reporting no sleepiness ([4]; afternoon test, with 11 additional subjects (n=46), placebo 18%, P<0.02): 48%
ANAM Math Test throughput improvement relative to baseline ([5]; AM test, placebo 6%, Group x Session P<0.07): 15%
ANAM Math Test throughput improvement relative to baseline ([5]; PM test, placebo 4%): 11%
self-reported fatigue and activity level, difference between NADH and placebo groups [6]: no significant differences
increase of Mark Numbers Test Total Score ([7]; PM test, placebo 19.2 points, P=0.011): 77.5 points
decrease of secondary task reaction time, Mark Numbers Test ([7]; baseline to AM, placebo increased by 0.44 seconds, P=0.016): 0.15 s
adverse effects attributable to treatment (human beings): no adverse effects
mean accuracy on the Running Memory Test ([8]; afternoon (PM) test, placebo 91%): 96%
Running Memory accuracy ([8]; stable across all three sessions (baseline, AM, PM), 14 subjects, Group x Session P=0.036, placebo dropped 95% to 91%): approximately 96%
subjects with tracking failures ([9]; AM test, placebo 41%): 33%
subjects with tracking failures ([9]; PM test, placebo 29%, P<0.09): 11%
more problems correctly completed per minute vs. baseline (Shifting Attention Test throughput) ([10]; AM test vs baseline, placebo 6.8, Group x Session P<0.05): 13.2 problems per minute
Shifting Attention Test: Instruction Condition accuracy ([10]; AM test, 92.5% at baseline, placebo 93% to 91%): 95%
